Literature values as cited in patent US20120264119A1, “NEW METHOD FOR DECONTAMINATION AND PROCESSING OF CLINICAL SPECIMENS FROM A PATIENT” (priority 2011, published 2012).

System: Mycobacteria
Details: sputum processing with sodium hydroxide alone or with N-acetyl-cysteine

[Na+].[OH-] [NaOH, sodium hydroxide]
viable mycobacteria destroyed: more than 80%
